Common to all, as to format: functional
For one assay, the system named is Cryptococcus neoformans. The experiment in a line: Antifungal activity against Cryptococcus neoformans LA314 assessed as reduction in fungal cell growth incubated for 48 hrs by broth microdilution method. Particulars: LA314, 48 h. (Dilution methods test growth across graded concentrations, often in twofold steps.)
A further assay relates to Nakaseomyces glabratus. Nature of the assay: Antifungal activity against Candida glabrata assessed as reduction in fungal cell growth incubated for 48 hrs by broth microdilution method.
In the next assay the test system is Candida parapsilosis. Nature of the assay: Antifungal activity against Candida parapsilosis ATCC 22019 assessed as reduction in fungal cell growth incubated for 48 hrs by broth microdilution method. Particulars: Lodderomyces parapsilosis, ATCC 22019, 48 h.
A further assay deals with Pichia kudriavzevii. Nature of the assay: Antifungal activity against Candida krusei assessed as reduction in fungal cell growth incubated for 48 hrs by broth microdilution method.
The subject of another assay is Candida albicans. The experiment in a line: Antifungal activity against Candida albicans assessed as reduction in fungal cell growth incubated for 48 hrs by broth microdilution method.
A further assay deals with Candida tropicalis. Nature of the assay: Antifungal activity against Candida tropicalis assessed as reduction in fungal cell growth incubated for 48 hrs by broth microdilution method.
The test system of a further assay is Aspergillus niger. Nature of the assay: Antifungal activity against Aspergillus niger assessed as reduction in fungal cell growth incubated for 72 hrs by broth microdilution method.

≈ marks a conversion by molar mass, not a printed value.

MIC data for 13 compounds are collected here from ChEMBL document CHEMBL4393657, “Tetrazole hybrids and their antifungal activities” (2019).

In the case of `CC(n1nnc(CCN2CCN(C(c3ccccc3)c3ccccc3)CC2)n1)C(O)(Cn1cncn1)c1ccc(F)cc1F` (stereo unspecified), the MIC in the assay with Cryptococcus neoformans, in the assay on Nakaseomyces glabratus, with Candida parapsilosis, in the assay on Pichia kudriavzevii, in the assay on Candida albicans and in the assay on Candida tropicalis was 1 to 16 µg/mL (≈ 1.67 to 26.7 µM) in each case. Further, in the assay with Aspergillus niger, the MIC was in the range of 1 to 16 µg/mL (≈ 1.67 to 26.7 µM).
In the case of `COc1ccccc1N1CCN(CCc2nnn(C(C)C(O)(Cn3cncn3)c3ccc(F)cc3F)n2)CC1` (stereo unspecified), the MIC with Cryptococcus neoformans, in the assay with Nakaseomyces glabratus, with Candida parapsilosis, in the assay with Pichia kudriavzevii, in the assay with Candida albicans and in the assay on Candida tropicalis was 1 to 16 µg/mL (≈ 1.85 to 29.7 µM) throughout. Moreover, the MIC in the assay with Aspergillus niger is 1 to 16 µg/mL (≈ 1.85 to 29.7 µM).
With `CC(n1nnc(CCN2CCN(c3cccc(C(F)(F)F)c3)CC2)n1)C(O)(Cn1cncn1)c1ccc(F)cc1F` (stereo unspecified), the minimal inhibitory concentration (MIC) in the assay with Cryptococcus neoformans, in the assay with Nakaseomyces glabratus, with Candida parapsilosis, in the assay with Pichia kudriavzevii, in the assay with Candida albicans and with Candida tropicalis was 1 to 16 µg/mL (≈ 1.73 to 27.7 µM) in each case. Further, in the assay with Aspergillus niger, the minimal inhibitory concentration (MIC) lay within 1 to 16 µg/mL (≈ 1.73 to 27.7 µM).
In the case of `CC(n1nnc(CCN2CCN(c3ccc(Cl)cc3)CC2)n1)C(O)(Cn1cncn1)c1ccc(F)cc1F` (stereo unspecified), the MIC with Cryptococcus neoformans, in the assay on Nakaseomyces glabratus, in the assay with Candida parapsilosis, with Pichia kudriavzevii, in the assay on Candida albicans and in the assay on Candida tropicalis was 1 to 16 µg/mL (≈ 1.84 to 29.4 µM) in each case. Besides, in the assay on Aspergillus niger, the MIC fell in the range of 1 to 16 µg/mL (≈ 1.84 to 29.4 µM).
For the compound `COc1ccc(N2CCN(CCc3nnn([C@@H](C)[C@](O)(Cn4cncn4)c4ccc(F)cc4F)n3)CC2)cc1`, the MIC with Cryptococcus neoformans, with Nakaseomyces glabratus, in the assay with Candida parapsilosis, with Pichia kudriavzevii, in the assay on Candida albicans and in the assay on Candida tropicalis was 0.25 to 16 µg/mL (≈ 0.463 to 29.7 µM) throughout. In addition, the minimum inhibitory concentration (MIC) with Aspergillus niger was 0.25 to 16 µg/mL (≈ 0.463 to 29.7 µM).
As to `OC(Cn1cncn1)(Cn1nnc(CCN2CCN(c3ccc(F)cc3)CC2)n1)c1ccc(F)cc1F` (stereo unspecified), the minimal inhibitory concentration (MIC) in the assay with Cryptococcus neoformans, in the assay on Nakaseomyces glabratus, in the assay on Candida parapsilosis, in the assay on Pichia kudriavzevii, with Candida albicans and in the assay on Candida tropicalis was 1 to 16 µg/mL (≈ 1.95 to 31.2 µM) throughout. In addition, the minimal inhibitory concentration (MIC) with Aspergillus niger lay within 1 to 16 µg/mL (≈ 1.95 to 31.2 µM).
In the case of `OC(Cn1cncn1)(Cn1nnnc1CCN1CCN(c2ccc(F)cc2)CC1)c1ccc(F)cc1F` (stereo unspecified), the MIC with Cryptococcus neoformans, in the assay with Nakaseomyces glabratus, in the assay with Candida parapsilosis, with Pichia kudriavzevii, in the assay on Candida albicans and in the assay on Candida tropicalis was 0.5 to 16 µg/mL (≈ 0.974 to 31.2 µM) in each case. Also, the MIC in the assay on Aspergillus niger was in the range of 0.5 to 16 µg/mL (≈ 0.974 to 31.2 µM).
Regarding `CC(n1nnc(CCN2CCN(c3ccc([N+](=O)[O-])cc3)CC2)n1)C(O)(Cn1cncn1)c1ccc(F)cc1F` (stereo unspecified), the MIC in the assay with Cryptococcus neoformans, with Nakaseomyces glabratus, with Candida parapsilosis, with Pichia kudriavzevii, in the assay with Candida albicans and in the assay on Candida tropicalis was 1 to 16 µg/mL (≈ 1.8 to 28.9 µM) each time. Also, the MIC in the assay on Aspergillus niger was 1 to 16 µg/mL (≈ 1.8 to 28.9 µM).
Turning to `C[C@H](n1nnc(CCN2CCN(c3cccc(Cl)c3)CC2)n1)[C@](O)(Cn1cncn1)c1ccc(F)cc1F`, the MIC with Cryptococcus neoformans, in the assay with Nakaseomyces glabratus, with Candida parapsilosis, in the assay on Pichia kudriavzevii, in the assay on Candida albicans and in the assay on Candida tropicalis was 0.25 to 16 µg/mL (≈ 0.46 to 29.4 µM) in each case. Further, in the assay on Aspergillus niger, the MIC is 0.25 to 16 µg/mL (≈ 0.46 to 29.4 µM).
Regarding `C[C@H](n1nnc(CCN2CCN(c3c(Cl)cccc3Cl)CC2)n1)[C@](O)(Cn1cncn1)c1ccc(F)cc1F`, the minimal inhibitory concentration (MIC) in the assay on Cryptococcus neoformans, with Nakaseomyces glabratus, in the assay with Candida parapsilosis, with Pichia kudriavzevii, in the assay with Candida albicans and in the assay with Candida tropicalis was 0.25 to 16 µg/mL (≈ 0.432 to 27.7 µM) each time. Besides, the MIC with Aspergillus niger lay within 0.25 to 16 µg/mL (≈ 0.432 to 27.7 µM).
As for `CCCCOc1ccccc1N1CCN(CCc2nnnn2C(C)C(O)(Cn2cncn2)c2ccc(F)cc2F)CC1` (stereo unspecified), the MIC in the assay with Cryptococcus neoformans, with Nakaseomyces glabratus, in the assay on Candida parapsilosis, with Pichia kudriavzevii, with Candida albicans and in the assay on Candida tropicalis was 0.5 to 16 µg/mL (≈ 0.86 to 27.5 µM) in each case. Besides, the MIC in the assay with Aspergillus niger lay in the range of 0.5 to 16 µg/mL (≈ 0.86 to 27.5 µM).
As to `COc1ccccc1N1CCN(CCc2nnnn2C(C)C(O)(Cn2cncn2)c2ccc(F)cc2F)CC1` (stereo unspecified), the minimum inhibitory concentration (MIC) with Cryptococcus neoformans, with Nakaseomyces glabratus, in the assay with Candida parapsilosis, in the assay with Pichia kudriavzevii, in the assay on Candida albicans and with Candida tropicalis was 0.5 to 16 µg/mL (≈ 0.927 to 29.7 µM) each time. Further, the MIC with Aspergillus niger was in the range of 0.5 to 16 µg/mL (≈ 0.927 to 29.7 µM).
`C[C@H](n1nnnc1CCN1CCN(c2ccc([N+](=O)[O-])cc2)CC1)[C@](O)(Cn1cncn1)c1ccc(F)cc1F`: the MIC in the assay with Cryptococcus neoformans, in the assay with Nakaseomyces glabratus, with Candida parapsilosis, with Pichia kudriavzevii, in the assay on Candida albicans and with Candida tropicalis was 0.12 to 16 µg/mL (≈ 0.216 to 28.9 µM) throughout. Moreover, in the assay with Aspergillus niger, the minimum inhibitory concentration (MIC) lay within 0.12 to 16 µg/mL (≈ 0.216 to 28.9 µM).

The MIC is the lowest concentration that inhibits growth of the organism.
